Measurements: PMC8533149 (Biomolecules, 2021)
Where two headings read alike, the source gives them in different places. Blank lines part the entries; values can stand above or below the compound they belong to.

Assays:
[1] = test system: Pu39 G4 (G-rich region of the P1 promoter of BCL-2); test: FRET melting assay, Pu39; assay type: binding, human; conditions: 50:1
Protocol: (§1) To evaluate stabilizing properties of the ligands in a complex with oligodeoxyribonucleotides (ODNs) melting with fluorescence registration was used. ODN (0.5 μM) (Table 1), labeled with 6-carboxyfluorescein (FAM) and 6-carboxytetramethylrhodamine (TAMRA) at the 5′- and 3′-end, respectively, were folded in lithium cacodylate buffer (10 mM, pH 7.4) with 100 mM KCl by heating at 95 °C for 5 min and gradually cooling to r.t. GFP chromophore analogs (5 mM solution in DMSO) were diluted with the same buffer to the final concentration of 25 μM and mixed with an equal volume of 0.5 μM ODN solution resulting in a molar ratio of 50:1 (total volume was 50 μL). For the titration experiments molar ratios of 20:1 and 2:1 were used. Samples were analyzed using DTprime qPCR system (DNA-Technology LLC, Moscow, Russia). Fluorescence was registered by detection of FAM emission at 520 nm upon excitation at 495 nm in the temperature range of 30–95 °C with 1 °C/min gradient. Tm was determined using the instrument software and ΔTm was calculated relative to ODN Tm in a buffer solution containing 0.25% (v/v) DMSO. The primary and secondary screening were carried out in singlicate and triplicate, respectively.
(§2) Initially we screened an in-house library of 440 synthetic GFP chromophore analogues for interaction with HIV-1 LTR-III sequence, which modulates HIV-1 promoter activity, using high-throughput screening (HTS) FRET melting assay (Table S1). […] We selected 11 compounds (Figure 2A), displaying stabilization in the range of 2.4–7.8 °C, and evaluated their ability to stabilize other G4-forming sequences, including human telomeric sequence Telo (one of the most common G4 structures in the human genome, having two conformations, Hybrid-1 and Hybrid-2 [36]) and model G4 […] (the G-rich Pu39 region of the P1 promoter of the oncogene BCL-2, an apoptosis regulator [37] with polymorphic conformational structure), as well as double stranded oligonucleotide (duplex) control sequence (Figure 2B, Table S2).

Cytotoxicity test = assay type: cell-based; conditions: human, MT4 cells (human T cell leukemia), Figure 7
Protocol: (§3) Green monkey kidney (Vero, Beach, FL, USA) cell line was maintained in 2 × Eagle MEM (“Chumakov FSC R&D IBP RAS”, Russia) with 5% FBS with L-glutamine, penicillin and streptomycin. […] HIV-1 strain NL4-3 was obtained via cell transfection with pNL4-3 3 (ARP2006, NIBSC, Potters Bar, UK).
(§4) MT4 cell suspensions were added to the wells with compound dilutions and DMSO control (approx. 2 × 10^4 cells per well). […] All experimental procedures were performed in two replicates and were repeated two to four times. Mean and SD were calculated with OriginPro 8 (OriginLab, St. Louis, MO, USA).

MT4 cells = test: Cytotoxicity test; assay type: cell-based; conditions: Table S12, nine days
Protocol: as §3, §4

[2] = test system: HIV-1 LTR-III G-quadruplex (FAM/TAMRA-labeled LTR-III); test: FRET melting assay, LTR-III G4; assay type: binding; conditions: for LTR III stabilization: Figure 7, stabilization group; for LTR-III (average): Table S12, average stabilization
Method in brief: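 Melting is followed by FAM fluorescence (ex 495/em 520 nm) while heating at 1 °C/min from 30 to 95 °C. Labelled ODN at 0.5 μM, pre-annealed in 10 mM Li cacodylate, 100 mM KCl, pH 7.4, mixed with ligand at 50:1 (25 μM), or 20:1 and 2:1 for titration. ΔTm is relative to the 0.25% DMSO buffer control.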

[3] = test system: HIV-1 strain NL4-3 in MT4 cells; test: Cytopathic effect inhibition test; assay type: cell-based; conditions: HIV-1 NL4-3, MT4 cells
Protocol: Human T cell leukemia (MT4) cell line was maintained in RPMI-1640 (“Chumakov FSC R&D IBP RAS”, Moscow, Russia) with 10% of fetal bovine serum (FBS, Invitrogen, Waltham, MA, USA), L-glutamine and gentamicin. Green monkey kidney (Vero, Beach, FL, USA) cell line was maintained in 2 × Eagle MEM (“Chumakov FSC R&D IBP RAS”, Russia) with 5% FBS with L-glutamine, penicillin and streptomycin. Cell cultures were incubated in the present of 5% CO2 at 37 °C. HIV-1 strain NL4-3 was obtained via cell transfection with pNL4-3 3 (ARP2006, NIBSC, Potters Bar, UK).
Eight two-fold dilutions of stock solutions of the compounds in two replicates were prepared in RPMI-1640 (“Chumakov FSC R&D IBP RAS”, Russia). Compound dilutions were mixed with equal volumes of the virus suspension containing 100 CCID50 (50% tissue culture infectious dose). Control cells were treated with the same sequential concentrations of DMSO as in compound dilutions. Then, the MT4 cell suspension (approx. 2 × 10^4 cells per well) in RPMI-1640 containing 10% FBS (Invitrogen, South America) was added to experimental mixtures. A final concentration series started from 25 μM. Each experiment contained virus dose titration in the inoculate to assure the acceptable dose-range. After a nine-day incubation (5% CO2, at 37 °C), cytopathic effect (CPE) was visually accessed via microscope. EC50 values were calculated according to the Karber method. All experimental procedures were performed in two replicates and were repeated two to four times. Mean and SD were calculated with OriginPro 8 (OriginLab, St. Louis, MO, USA).

[4] = test system: dsDNA (double stranded control sequence); test: FRET melting assay, duplex control; assay type: binding; conditions: 50:1
Protocol: as §1, §2

[5] = test system: human telomeric sequence Telo G4; test: FRET melting assay, Telo; assay type: binding; conditions: 50:1
Protocol: as §1, §2

[6] = test system: dsDNA (DNA, duplex) CTATAGCGCGCTATAG; test: FRET melting; conditions: 100 mM KCl; 10 mM lithium cacodylate pH 7.4, 0.25% DMSO; 12.5 μM compound, 0.25 μM DNA (50:1)
[7] = test system: Telo (DNA, G4) AGGGTTAGGGTTAGGGTTAGGG; test: FRET melting; conditions: 100 mM KCl; 10 mM lithium cacodylate pH 7.4, 0.25% DMSO; 12.5 μM compound, 0.25 μM DNA (50:1)
LTR-III G4 = test: NMR titration of LTR-III; assay type: binding, HIV-1; conditions: for interaction with LTR-III by NMR titration (selective signal attenuation): 50 μM LTR-III, 1D 1H NMR
Protocol: All NMR spectra were acquired on a Bruker Avance III 800 MHz spectrometer equipped with a cryoprobe. Titration of 50 μM LTR-III samples (70 mM KCl, 20 mM potassium phosphate buffer, pH 7.0) with 2 mM ZS260.1 and N979 ligands dissolved in DMSO was performed. 1D ^1H NMR spectra were used to track the changes during titration. ^1H-^13C HSQC and HMBC at 35 °C were used to transfer the assignment of H6/C6 and H8/C8 signals from previously obtained assignment. To identify the LTR-III residues that are most influenced by addition of ZS260.1 ligand, the intensities of cross-peaks in the ^1H-^13C HSQC spectra measured with and without added ligand were compared. The H6/C6 and H8/C8 cross-peak intensities were measured at molar ratio of LTR-III to ZS260.1 of 5:1 (35 °C, 0.5 mM LTR-III G4).
The ligand binding processes are probably in intermediate to fast regime on the NMR timescale. Therefore, the resonances of residues that are close to the ligand binding site (s) become broadened and attenuated (intermediate exchange regime).
To determine affinity of the compound ZS260.1 to LTR-III G4 we analyzed changes in H8 chemical shift of G8 residue in 1D ^1H NMR spectra. […] The titration data were successfully approximated by simple chemical reaction A + B = AB, that implies one to one stoichiometry of binding that is consistent with literature data (Suppl. S8). The dissociation constant for the LTR-III/ZS260.1 complex (Kd) was on the order of 3 μM.

[8] = Table S2, primary screening lead compounds
[9] = Table S1 primary screening, ligand:ODN 50:1, singlicate
[10] = Human immunodeficiency virus 1, NL43, 216 h, Table S12, CPE, nine-day incubation, read-out: EC50
[11] = Human immunodeficiency virus 1, NL43, Figure 7, read-out: Antiviral activity EC50 (HIV)
[12] = Table S12, CPE, nine-day incubation
[13] = Table S5, newly synthesized compounds
[14] = Table S3 primary screening of newly synthesized analogs, 50:1

SMILES: COc1c(O)ccc(/C=C2N=C(/C=C/c3ccncc3)N(C)C\2=O)c1OC [N 1068.2]
- ΔTm Pu39 [1, 8]: 0±0.4 °C
- CC50 at 9 days (Cytotoxicity test): 3 ± 1 µM
- СС50 (MT4) (MT4 cells): 3.0 ± 1.0 µM
- LTR III stabilization [2]: > 3 °C
- LTR-III ΔTm [2, 9]: 7.1 °C
- LTR-III (average) [2]: 6,9 °C
- EC50 [3, 10]: 1.78 ± 0.38 µM
- EC50 [3, 11]: 1.8 ± 0.4 µM
- EC50 [3, 12]: micromolar range
- ΔTm Duplex [4, 8]: 0.1±0.04 °C
- ΔTm Telo [5, 8]: 1.2±0.2 °C

SMILES: COc1c(O)ccc(/C=C2N=C(/C=C/c3cc(Cl)nc(Cl)c3)N(C)C\2=O)c1OC [N1198]
- ΔTm Pu39 [1, 13]: 0.1±0.1 °C
- CC50 at 9 days (Cytotoxicity test): 3 ± 1 µM
- СС50 (MT4) (MT4 cells): 2.8 ± 1.1 µM
- LTR III stabilization [2]: > 3 °C
- LTR-III ΔTm [2, 14]: 6.5 °C
- LTR-III (average) [2]: 6,5 °C
- EC50 [3, 10]: 1.78 ± 0.38 µM
- EC50 [3, 11]: 1.8 ± 0.4 µM
- EC50 [3, 12]: micromolar range
- ΔTm Duplex [4, 13]: 0±0.1 °C
- ΔTm Telo [5, 13]: 0.9±0.2 °C

SMILES: COc1cc(/C=C2N=C(/C=C/c3cc(Br)c(O)c(Br)c3)N(C)C\2=O)cc(OC)c1O [ZS 260.1]
- ΔTm Pu39 [1, 8]: 0.9±0.6 °C
- ΔTm [6]: 0.1±0.09 °C
- ΔTm [7]: 0.7±0.2 °C
- CC50 at 9 days (Cytotoxicity test): 4.1 ± 0.6 µM
- СС50 (MT4) (MT4 cells): 4.1 ± 0.6 µM
- interaction with LTR-III by NMR titration (selective signal attenuation) (LTR-III G4): interact with the LTR-III molecule
- Kd (LTR-III G4; H8 chemical shift of G8 in 1D 1H NMR, 1:1 binding model, read-out: dissociation constant for the LTR-III/ZS260.1 complex (Kd)): ~3 µM
- LTR III stabilization [2]: > 3 °C
- LTR-III ΔTm [2, 9]: 7.8 °C
- LTR-III (average) [2]: 8,35 °C
- EC50 [3, 10]: 3.78 ± 0.91 µM
- EC50 [3, 11]: 3.8 ± 0.9 µM
- EC50 [3, 12]: micromolar range
- ΔTm Duplex [4, 8]: 0.1±0.09 °C
- ΔTm Telo [5, 8]: 0.7±0.2 °C

SMILES: COc1cc(/C=C2\N=C(C)N(C)C2=O)cc(OC)c1O [N 979]
- interaction with LTR-III by NMR titration (selective signal attenuation) (LTR-III G4): interact with the LTR-III molecule
- LTR-III ΔTm [2, 9]: -0.2 °C
- LTR-III ΔTm ([2]; Table S1 primary screening, ligand:ODN 50:1, singlicate, listed as N979): non-stabilizing

SMILES: COc1c(O)ccc(/C=C2N=C(/C=C/c3cc(Br)c(O)c(Br)c3)N(C)C\2=O)c1OC [N1199]
- ΔTm Pu39 [1, 13]: 0±0.2 °C
- CC50 at 9 days (Cytotoxicity test): 5 ± 3 µM
- СС50 (MT4) (MT4 cells): 4.6 ± 2.5 µM
- LTR III stabilization [2]: > 3 °C
- LTR-III ΔTm [2, 14]: 4.3 °C
- LTR-III (average) [2]: 4,3 °C
- EC50 [3, 10]: 3.3 ± 1.1 µM
- EC50 [3, 11]: 3 ± 1 µM
- ΔTm Duplex [4, 13]: 0±0.1 °C
- ΔTm Telo [5, 13]: 0.9±0.1 °C

- ΔTm [6]: -0.1±0.04 °C
- ΔTm [7]: 3.9±0.1 °C
SMILES: COc1ccc(/C=C/C=C/C2=NC(=C\c3ccc(O)cc3OC)/C(=O)N2C)cc1

SMILES: COc1cc(/C=C2N=C(/C=C/C=C/c3ccc(N(C)C)cc3)N(C)C\2=O)cc(OC)c1O [N1195]
- ΔTm Pu39 [1, 13]: 1.8±0.1 °C
- CC50 at 9 days (Cytotoxicity test): 6 ± 3 µM
- СС50 (MT4) (MT4 cells): 5.9 ± 2.6 µM
- LTR III stabilization [2]: > 3 °C
- LTR-III ΔTm [2, 14]: 4.2 °C
- LTR-III (average) [2]: 4,2 °C
- EC50 [3, 10]: 3.78 ± 0.91 µM
- EC50 [3, 11]: 3.8 ± 0.9 µM
- ΔTm Duplex [4, 13]: 0.1±0.1 °C
- ΔTm Telo [5, 13]: 0.9±0.3 °C

SMILES: COc1ccc(/C=C/C2=NC(=C\c3ccc(O)cc3OC)/C(=O)N2C)cc1 [N 1052]
- ΔTm Pu39 [1, 8]: 2.1±0.2 °C
- CC50 at 9 days (Cytotoxicity test): 7 ± 3 µM
- СС50 (MT4) (MT4 cells): 6.6 ± 3.1 µM
- LTR III stabilization [2]: > 3 °C
- LTR-III ΔTm [2, 9]: 4.6 °C
- LTR-III (average) [2]: 4,5 °C
- ΔTm Duplex [4, 8]: -0.1±0.04 °C
- ΔTm Telo [5, 8]: 3.9±0.1 °C
